The source of these data is patent US5247084A, “Derivatives of p-guanidinobenzoic acid” (priority 1985, dated 1993).

Molecules are shown by their SMILES. Structures can show the parent of a compound that is named as a salt. Where two headings read alike, the source gives them in different places. A value given as a limit tells only on which side of the number the result lay.

The target in the assay is T1, elastase from human neutrophil (Homo sapiens, UniProt P08246).
T1 construct: using elastase from human neutrophil; from tissue; host or cells: human neutrophil
T1 sequence (P08246 30-247 limits assumed): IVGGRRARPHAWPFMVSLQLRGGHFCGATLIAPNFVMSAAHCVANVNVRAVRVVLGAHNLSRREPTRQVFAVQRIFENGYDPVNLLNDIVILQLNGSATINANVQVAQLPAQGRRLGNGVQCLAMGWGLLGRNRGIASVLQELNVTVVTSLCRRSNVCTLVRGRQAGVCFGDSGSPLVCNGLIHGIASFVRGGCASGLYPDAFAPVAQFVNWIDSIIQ
The assay can be described thus: Inhibitory effect on elastase (spectrophotometric method, substrate Suc-Ala-Pro-Ala-pNA). The format is biochemical.

Where [1] appears, read: Y represents an oxygen atom, pH 8.0, 37° C., 30 minutes, read-out: Inhibitory Effect on Elastase, IC50.
Setting [2] is: Y represents a sulfur atom, pH 8.0, 37° C., 30 minutes, read-out: Elastase Inhibitory Effect, IC50.
Setting [3] is: at 50 μg/ml, Y represents a sulfur atom, read-out: Elastase Inhibitory Effect, Inhibition %.

Procedure: The test was carried out by the slight modification of the method of Bieth et al [see Biochem. Med., 75, 350 (1974)] using elastase from human neutrophil.
The reaction mixture consisted of 1 mM Suc-Ala-Pro-Ala-pNA (dissolving in N-methylpyrrolidone to the concentration of 100 mM, and then adding 1/100 amount of the solution to the reaction mixture.), 0.1 M buffer solution of tris-hydrochloric acid (pH 8.0), 0.2 M sodium chloride aqueous solution, the sample solution of various concentrations and enzyme solution in a final volume of 1.0 ml was incubated at 37° C. for 30 minutes.
The reaction was stopped by the addition of 100 μl of 50% acetic acid into the reaction mixture, and then p-nitro anilide released was measured on absorbance of 405 nm.
Inhibition percentage of the test compounds was caliculated by the following equation: [formula]

In the case of `N=C(N)Nc1ccc(C(=O)Oc2cc(Cl)cc(OCc3ccccc3)c2)cc1` [Example 119], the IC50 (in general, the midpoint of a concentration-inhibition curve) under setting [1] is 4.7 µM.

As to `COc1cccc(SC(=O)c2ccc(NC(=N)N)cc2)c1` [Example 129], the 50% inhibitory concentration (IC50) under setting [2] is 6.4 µM. The inhibition (usually the change of the read-out against control, counted positive when it falls) at 50 µg/mL under setting [3] turned out to be 89.2%.

As to `N=C(N)Nc1ccc(C(=O)Oc2cccc([N+](=O)[O-])c2)cc1` [Example 107], the IC50 under setting [1] came out at 11 µM. This molecule came in with an inhibition at 100 µM (Y represents an oxygen atom) of 87%.

In the case of `COc1cc(OC(=O)c2ccc(NC(=N)N)cc2)cc(OS(C)(=O)=O)c1` [Example 73], the IC50 under setting [1] amounted to 4.7 µM.

As for `CCCNC(=O)c1cc(OC(=O)c2ccc(NC(=N)N)cc2)cc(C(=O)NCCC)c1` [Example 84], at 100 µM the inhibition (Y represents an oxygen atom) was 36%.

In the case of `N=C(N)Nc1ccc(C(=O)Oc2ccccc2Cl)cc1` [Example 34], the IC50 under setting [1] was 27 µM. In addition, testing at 100 µM (Y represents an oxygen atom) gave an inhibition of 76.8%.

Turning to `N=C(N)Nc1ccc(C(=O)Oc2ccc(S(=O)(=O)N3CCCC3)cc2)cc1` [Example 98], the IC50 under setting [1] was 77 µM.

In the case of `CCNC(=O)c1cc(OC(=O)c2ccc(NC(=N)N)cc2)cc(C(=O)NCC)c1` [Example 83], at 100 µM the inhibition (Y represents an oxygen atom) was 28%.

With `N=C(N)Nc1ccc(C(=O)Oc2cc(Cl)cc(C(N)=O)c2)cc1` [Example 79], under setting [1], the IC50 amounted to 5.2 µM.

In the case of `Cc1ccc(SC(=O)c2ccc(NC(=N)N)cc2)cc1` [Example 127], the inhibition at 50 µg/mL under setting [3] worked out at 29.3%.

Take `N=C(N)Nc1ccc(C(=O)Oc2cccc(F)c2)cc1` [Example 29]: the IC50 under setting [1] is 21 µM. The molecule further had an inhibition at 100 µM (Y represents an oxygen atom) of 81.1%.

`N=C(N)Nc1ccc(C(=O)Oc2cccc(S(=O)(=O)N3CCCCC3)c2)cc1` [Example 99] had an inhibition at 100 µM (Y represents an oxygen atom) of 41%.

As to `CCN(CC)S(=O)(=O)c1ccc(SC(=O)c2ccc(NC(=N)N)cc2)cc1` [Example 146], the IC50 under setting [2] was 11 µM. Also, the inhibition at 50 µg/mL under setting [3] was 73.1%.

On to `CCCOc1ccc(C(C)=O)c(OC(=O)c2ccc(NC(=N)N)cc2)c1` [Example 50], for which, under setting [1], the IC50 stood at 54 µM.

`N=C(N)Nc1ccc(C(=O)Oc2cccc(S(=O)(=O)N3CCOCC3)c2)cc1` [Example 100] came in with an inhibition at 100 µM (Y represents an oxygen atom) of 44.2%.

As to `COc1cc(COc2ccc(S(=O)(=O)N3CCOCC3)cc2)cc(OC(=O)c2ccc(NC(=N)N)cc2)c1` [Example 152, p-guanidinobenzoic acid 3-methoxy-5-(4-morpholinosulfonyl)phenoxymethylphenylester acetate], under setting [1], the 50% inhibitory concentration (IC50) is 7 µM.

In the case of `COC(=O)c1cc(OC(=O)c2ccc(NC(=N)N)cc2)cc(OC(=O)c2ccc(NC(=N)N)cc2)c1` [Example 67], the IC50 under setting [1] turned out to be 70 µM.

On to `N=C(N)Nc1ccc(C(=O)Oc2ccccc2C(F)(F)F)cc1` [Example 45], for which the IC50 under setting [1] turned out to be 23 µM. The inhibition at 100 µM (Y represents an oxygen atom) was determined as 72.4%.

On to `COc1ccc(SC(=O)c2ccc(NC(=N)N)cc2)cc1` [Example 130], for which the inhibition at 50 µg/mL under setting [3] stood at 48.2%.

On to `COc1cccc(OC(=O)c2ccc(NC(=N)N)cc2)c1` [Example 8], for which the IC50 under setting [1] came out at 100 µM. Moreover, where the note is “Y represents an oxygen atom”, testing at 100 µM gave an inhibition of 50.9%.

As to `N=C(N)Nc1ccc(C(=O)Oc2ccc([N+](=O)[O-])cc2)cc1` [Example 108], the IC50 under setting [1] turned out to be 120 µM. The inhibition at 100 µM (Y represents an oxygen atom) is 60.1%.

For the setting “Y represents an oxygen atom”, `CC(=O)Oc1cccc(OC(=O)c2ccc(NC(=N)N)cc2)c1` [Example 59] returned an inhibition at 100 µM of 25.7%.

For `N=C(N)Nc1ccc(C(=O)Oc2cc(NC(=N)N)ccc2Cl)cc1` [Example 118], the IC50 under setting [1] was found to be 47 µM.

For `N=C(N)Nc1ccc(C(=O)Oc2cc(Cl)ccc2C(=O)CC2CCCC2)cc1` [Example 58], the half-maximal inhibitory concentration (IC50) under setting [1] is 1.9 µM.

For the setting “Y represents an oxygen atom”, `Cc1ccc(OC(=O)c2ccc(NC(=N)N)cc2)cc1` [Example 4-methyl, reference compound] yielded an inhibition at 100 µM of 28.4%.

`COc1cc(OC)cc(OC(=O)c2ccc(NC(=N)N)cc2)c1` [Example 10]: the IC50 under setting [1] came to 40 µM.

Consider `N=C(N)Nc1ccc(C(=O)Oc2c(Cl)cccc2Cl)cc1` [Example 38], for which the IC50 under setting [1] was determined as 2 µM. Besides, the inhibition at 100 µM (Y represents an oxygen atom) turned out to be 89.9%.

`Cc1cc(O)cc(OC(=O)c2ccc(NC(=N)N)cc2)c1` [Example 109]: the IC50 under setting [1] was 160 µM.

For `CN(C)C(=O)Oc1cc(Cl)cc(OC(=O)c2ccc(NC(=N)N)cc2)c1` [Example 87], it took 0.76 µM to reach half-maximal inhibition (IC50).

On to `Cc1ccccc1SC(=O)c1ccc(NC(=N)N)cc1` [Example 125], for which the half-maximal inhibitory concentration (IC50) under setting [2] was determined as 20 µM. The inhibition at 50 µg/mL under setting [3] was found to be 76.3%.

Turning to `CC(C)C(=O)c1ccc(Cl)cc1OC(=O)c1ccc(NC(=N)N)cc1` [Example 53], the IC50 under setting [1] was found to be 6.5 µM.

Turning to `N=C(N)Nc1ccc(C(=O)Oc2c(F)c(F)c(F)c(F)c2F)cc1` [Example 33], under setting [1], the IC50 was 5.8 µM. At 100 µM the inhibition (Y represents an oxygen atom) was 92.1%.

Take `N=C(N)Nc1ccc(C(=O)Oc2cc(Cl)cc(C(=O)N3CCS(=O)(=O)C3)c2)cc1` [Example 123]: the half-inhibitory concentration (IC50) under setting [1] came out at 3.1 µM.

As for `N=C(N)Nc1ccc(C(=O)Sc2ccc([N+](=O)[O-])cc2)cc1` [Example 145], the IC50 under setting [2] stood at 18 µM. Moreover, the inhibition at 50 µg/mL under setting [3] worked out at 64.2%.

Take `N=C(N)Nc1ccc(OC(=O)c2ccc(NC(=N)N)cc2)cc1` [Example 117]: the IC50 under setting [1] was above 100 µM.

Turning to `N=C(N)Nc1ccc(C(=O)Oc2cc(Cl)cc(CO)c2)cc1` [Example 150, P-guanidinobenzoic acid 3-chloro-5-hydroxymethylphenylester acetate], under setting [1], the IC50 was determined as 4.5 µM.

In the case of `CC(C)S(=O)(=O)Oc1cc(Cl)cc(OC(=O)c2ccc(NC(=N)N)cc2)c1` [Example 76], the IC50 under setting [1] is 1.1 µM.

As for `CN(C)C(=O)c1cccc(OC(=O)c2ccc(NC(=N)N)cc2)c1` [Example 80], the inhibition at 100 µM (Y represents an oxygen atom) was 30%.

Consider `N=C(N)Nc1ccc(C(=O)Sc2cccc(Cl)c2)cc1` [Example 133], for which the IC50 under setting [2] was found to be 0.3 µM. The inhibition at 50 µg/mL under setting [3] turned out to be 81.2%.

Consider `COC(=O)c1ccc(Cl)cc1OC(=O)c1ccc(NC(=N)N)cc1` [Example 17], for which the IC50 under setting [1] came to 5.8 µM. Where the note is “Y represents an oxygen atom”, this molecule registered an inhibition at 100 µM of 92.2%.

In turn, `Cc1cc(C)cc(OC(=O)c2ccc(NC(=N)N)cc2)c1` [Example 5] registered an inhibition at 100 µM (Y represents an oxygen atom) of 46.2%.

As to `COC(=O)c1cc(Cl)cc(OC(=O)c2ccc(NC(=N)N)cc2)c1` [Example 18], the IC50 under setting [1] is 1.8 µM.

For `N=C(N)Nc1ccc(C(=O)Oc2cc(Cl)cc(Cl)c2)cc1` [Example 1, p-guanidinobenzoic acid 3,5-dichlorophenyl ester methanesulfonate], under setting [1], the IC50 turned out to be 0.4 µM. The same molecule displayed an inhibition at 100 µM (Y represents an oxygen atom) of 97%.

With `N=C(N)Nc1ccc(C(=O)Oc2ccccc2F)cc1` [Example 28], the IC50 under setting [1] stood at 40 µM. The molecule further came in with an inhibition at 100 µM (Y represents an oxygen atom) of 76.3%.

For `COc1cc(OC(=O)c2ccc(NC(=N)N)cc2)cc(OC(=O)c2ccc(NC(=N)N)cc2)c1` [Example 69], the IC50 under setting [1] was 1.6 µM.

As for `N=C(N)Nc1ccc(C(=O)Oc2cc(Cl)ccc2C(=O)O)cc1` [Example 149], the IC50 under setting [1] is 60 µM.

`COC(=O)c1ccc(OC(=O)c2ccc(NC(=N)N)cc2)cc1Cl` [Example 16] registered an inhibition at 100 µM (Y represents an oxygen atom) of 42%.

For the molecule `N=C(N)Nc1ccc(C(=O)Oc2ccc(Cl)cc2)cc1` [Example 36], the inhibition at 50 µg/mL (at 50 μg/ml (footnote 2), Y represents an oxygen atom, read-out: Inhibitory Effect on Elastase, Inhibition %) turned out to be 14.9%.

On to `N=C(N)Nc1ccc(C(=O)Oc2cc(O)cc(OC(=O)c3ccc(NC(=N)N)cc3)c2)cc1` [Example 113], for which, where the note is “Y represents an oxygen atom”, the inhibition at 100 µM amounted to 42%.

For the setting “Y represents an oxygen atom”, `N=C(N)Nc1ccc(C(=O)Oc2ccc(C(=O)c3ccccc3)cc2)cc1` [Example 55] gave an inhibition at 100 µM of 33.3%.

As to `N=C(N)Nc1ccc(C(=O)Oc2cccc(C(=O)O)c2Cl)cc1` [Example 147, P-guanidinobenzoic acid 3-carboxy-2-chlorophenylester hydrobromide], under setting [1], the IC50 is 20 µM.

`CC(C)OC(=O)c1cc(OC(=O)c2ccc(NC(=N)N)cc2)cc(C(=O)OC(C)C)c1` [Example 19] returned an inhibition at 100 µM (Y represents an oxygen atom) of 5.2%.

Regarding `COc1cc(OC(=O)c2ccc(NC(=N)N)cc2)cc(C(=O)N2CCS(=O)(=O)C2)c1` [Example 122], the IC50 under setting [1] turned out to be 12 µM.

As to `N=C(N)Nc1ccc(C(=O)Oc2c(F)cccc2F)cc1` [Example 31], the IC50 under setting [1] came out at 3.7 µM.

As for `N=C(N)Nc1ccc(C(=O)Sc2c(Cl)cccc2Cl)cc1` [Example 136], under setting [2], the IC50 stood at 45 µM. Besides, under setting [3], the inhibition at 50 µg/mL was 64.5%.

Turning to `CCN(CC)S(=O)(=O)c1ccc(OC(=O)c2ccc(NC(=N)N)cc2)c(F)c1` [Example 96], the half-inhibitory concentration (IC50) under setting [1] was 61 µM.

With `COc1ccc(C(C)=O)c(OC(=O)c2ccc(NC(=N)N)cc2)c1` [Example 49], the IC50 under setting [1] came to 40 µM.

Consider `CC(C)OC(=O)c1ccc(Cl)cc1OC(=O)c1ccc(NC(=N)N)cc1` [Example 20], for which the IC50 under setting [1] was found to be 14 µM.

With `CCCN(CCC)S(=O)(=O)c1ccc(OC(=O)c2ccc(NC(=N)N)cc2)cc1` [Example 97], the IC50 under setting [1] stood at 58 µM.

Take `N=C(N)Nc1ccc(C(=O)Oc2cccc(OC(=O)c3ccc(NC(=N)N)cc3)c2)cc1` [Example 64]: the IC50 under setting [1] was 15 µM.

In turn, `Cc1cccc(OC(=O)c2ccc(NC(=N)N)cc2)c1C` [Example 4] returned an inhibition at 100 µM (Y represents an oxygen atom) of 5.9%.

As for `COc1cc(OC(=O)c2ccc(NC(=N)N)cc2)ccc1Cl` [Example 40], where the note is “Y represents an oxygen atom”, the inhibition at 100 µM worked out at 39%.

Molecule `CNC(=O)c1cc(O)cc(OC(=O)c2ccc(NC(=N)N)cc2)c1` [Example 114] had an inhibition at 100 µM (Y represents an oxygen atom) of 22%.

`Cc1ccccc1OC(=O)c1ccc(NC(=N)N)cc1` [Example 2] showed an inhibition at 100 µM (Y represents an oxygen atom) of 20.2%.

Turning to `COc1ccccc1SC(=O)c1ccc(NC(=N)N)cc1` [Example 128], the IC50 under setting [2] came out at 21 µM. The inhibition at 50 µg/mL under setting [3] came to 79.8%.
